The NIST ThermoML archive (doi:10.1016/j.jct.2007.05.005)
± gives the expanded uncertainty stated by the source.

Test: xn = mol fraction of the nth substance listed
Details: 101.3 kPa, Liquid; for speed of sound: Sing-around technique in a fixed-path interferometer

CCOC(C)(C)C [2-ethoxy-2-methylpropane] + CC(C)CC(C)(C)C
Details | mass density, 288.15 K [kg/m3] | mass density, 298.15 K [kg/m3] | mass density, 323.15 K [kg/m3] | speed of sound, 288.15 K [m/s] | speed of sound, 298.15 K [m/s] | speed of sound, 323.15 K [m/s]
x1 = 0.047 | 697.781 ± 1.2 | 689.477 ± 1.2 | 668.28 ± 1.3 | 1121.2 ± 2.2 | 1078.7 ± 2.2 | 975.15 ± 2.2
x1 = 0.1 | 699.904 ± 1.2 | 691.5 ± 1.2 | 670.054 ± 1.3 | 1118.3 ± 2.2 | 1075.5 ± 2.2 | 971.5 ± 2.2
x1 = 0.204 | 704.01 ± 1.2 | 695.429 ± 1.2 | 673.45 ± 1.3 | 1111.9 ± 2.2 | 1068.9 ± 2.2 | 964.23 ± 2.2
x1 = 0.305 | 708.284 ± 1.2 | 699.51 ± 1.2 | 677.1 ± 1.3 | 1106.8 ± 2.2 | 1063.8 ± 2.2 | 958.38 ± 2.2
x1 = 0.4 | 712.599 ± 1.2 | 703.649 ± 1.2 | 680.717 ± 1.3 | 1101.7 ± 2.2 | 1058.5 ± 2.2 | 952.41 ± 2.2
x1 = 0.508 | 717.689 ± 1.2 | 708.525 ± 1.2 | 685.059 ± 1.3 | 1096.5 ± 2.2 | 1053.1 ± 2.2 | 946.33 ± 2.2
x1 = 0.596 | 722.093 ± 1.1 | 712.737 ± 1.2 | 688.798 ± 1.2 | 1092.5 ± 2.2 | 1048.3 ± 2.2 | 941.25 ± 2.2
x1 = 0.699 | 727.55 ± 1.1 | 717.974 ± 1.2 | 693.436 ± 1.2 | 1088.3 ± 2.2 | 1043.8 ± 2.2 | 935.64 ± 2.2
x1 = 0.788 | 732.615 ± 1.1 | 722.843 ± 1.1 | 697.73 ± 1.2 | 1084.9 ± 2.2 | 1040.1 ± 2.2 | 931 ± 2.2
x1 = 0.902 | 739.579 ± 1.1 | 729.56 ± 1.1 | 703.808 ± 1.2 | 1081.5 ± 2.2 | 1036.6 ± 2.2 | 927.2 ± 2.2
x1 = 0.949 | 742.53 ± 1.1 | 732.405 ± 1.1 | 706.371 ± 1.2 | 1080.5 ± 2.2 | 1035.4 ± 2.2 | 925.22 ± 2.2
x1 = 1 | 745.656 ± 1.1 | 735.357 ± 1.1 | 709.007 ± 1.2 | 1078.9 ± 2.2 | 1033.2 ± 2.2 | 922.48 ± 2.2

CCOC(C)(C)C [2-ethoxy-2-methylpropane] + CC(C)(C)O
Details | mass density, 303.15 K [kg/m3] | mass density, 313.15 K [kg/m3] | mass density, 323.15 K [kg/m3] | speed of sound, 303.15 K [m/s] | speed of sound, 313.15 K [m/s] | speed of sound, 323.15 K [m/s]
x1 = 0.06 | 770.981 ± 1 | 760.486 ± 1 | 749.635 ± 1.1 | 1085.9 ± 2.2 | 1043.4 ± 2.2 | 1001.6 ± 2.2
x1 = 0.093 | 768.859 ± 1 | 758.385 ± 1 | 747.565 ± 1.1 | 1079.5 ± 2.2 | 1037.4 ± 2.2 | 996.19 ± 2.2
x1 = 0.2 | 762.345 ± 1 | 751.936 ± 1.1 | 741.141 ± 1.1 | 1062.9 ± 2.2 | 1021.9 ± 2.2 | 980.83 ± 2.2
x1 = 0.298 | 757.005 ± 1 | 746.63 ± 1.1 | 735.846 ± 1.1 | 1050.7 ± 2.2 | 1010.1 ± 2.2 | 969.12 ± 2.2
x1 = 0.386 | 752.738 ± 1.1 | 742.309 ± 1.1 | 731.52 ± 1.1 | 1041.5 ± 2.2 | 1000.3 ± 2.2 | 959.27 ± 2.2
x1 = 0.488 | 748.226 ± 1.1 | 737.777 ± 1.1 | 726.96 ± 1.1 | 1033.5 ± 2.2 | 992.26 ± 2.2 | 950.9 ± 2.2
x1 = 0.632 | 742.556 ± 1.1 | 732.028 ± 1.1 | 721.169 ± 1.1 | 1024.7 ± 2.2 | 982.68 ± 2.2 | 940.83 ± 2.2
x1 = 0.685 | 740.622 ± 1.1 | 730.077 ± 1.1 | 719.198 ± 1.2 | 1022.1 ± 2.2 | 979.93 ± 2.2 | 937.72 ± 2.2
x1 = 0.796 | 736.85 ± 1.1 | 726.255 ± 1.1 | 715.369 ± 1.2 | 1017.9 ± 2.2 | 975.09 ± 2.2 | 932.37 ± 2.2
x1 = 0.896 | 733.592 ± 1.1 | 722.99 ± 1.1 | 712.15 ± 1.2 | 1014.9 ± 2.2 | 971.48 ± 2.2 | 928.25 ± 2.2
x1 = 0.949 | 731.862 ± 1.1 | 721.29 ± 1.1 | 710.507 ± 1.2 | 1013.4 ± 2.2 | 969.31 ± 2.2 | 925.71 ± 2.2
x1 = 1 | 730.186 ± 1.1 | 719.687 ± 1.2 | 708.996 ± 1.2 | 1010.2 ± 2.2 | 965.87 ± 2.2 | 922.08 ± 2.2

CCOC(C)(C)C [2-ethoxy-2-methylpropane] + CCc1ccccc1
Details | mass density, 288.15 K [kg/m3] | mass density, 298.15 K [kg/m3] | mass density, 323.15 K [kg/m3] | speed of sound, 288.15 K [m/s] | speed of sound, 298.15 K [m/s] | speed of sound, 323.15 K [m/s]
x1 = 0.062 | 862.801 ± 0.73 | 854.066 ± 0.75 | 831.864 ± 0.82 | 1341.6 ± 2.2 | 1298.5 ± 2.2 | 1195.2 ± 2.2
x1 = 0.122 | 855.221 ± 0.75 | 846.39 ± 0.78 | 823.917 ± 0.84 | 1324.4 ± 2.2 | 1281 ± 2.2 | 1177.2 ± 2.2
x1 = 0.239 | 840.448 ± 0.79 | 831.434 ± 0.82 | 808.496 ± 0.89 | 1291.1 ± 2.2 | 1247.3 ± 2.2 | 1142.5 ± 2.2
x1 = 0.353 | 826.071 ± 0.84 | 816.917 ± 0.86 | 793.606 ± 0.94 | 1258.9 ± 2.2 | 1214.8 ± 2.2 | 1109 ± 2.2
x1 = 0.455 | 813.347 ± 0.87 | 804.045 ± 0.9 | 780.291 ± 0.97 | 1230.1 ± 2.2 | 1185.7 ± 2.2 | 1079 ± 2.2
x1 = 0.556 | 800.809 ± 0.91 | 791.351 ± 0.94 | 767.168 ± 1 | 1201.7 ± 2.2 | 1157.1 ± 2.2 | 1049.8 ± 2.2
x1 = 0.653 | 788.72 ± 0.95 | 779.094 ± 0.98 | 754.45 ± 1.1 | 1174.2 ± 2.2 | 1129.3 ± 2.2 | 1021.4 ± 2.2
x1 = 0.746 | 777.039 ± 0.98 | 767.306 ± 1 | 742.327 ± 1.1 | 1148.3 ± 2.2 | 1103.2 ± 2.2 | 994.59 ± 2.2
x1 = 0.834 | 765.895 ± 1 | 756.026 ± 1 | 730.658 ± 1.1 | 1123.2 ± 2.2 | 1077.9 ± 2.2 | 968.81 ± 2.2
x1 = 0.918 | 755.524 ± 1 | 745.492 ± 1.1 | 719.646 ± 1.2 | 1099.7 ± 2.2 | 1054 ± 2.2 | 944.36 ± 2.2
x1 = 0.959 | 750.111 ± 1.1 | 740.037 ± 1.1 | 714.068 ± 1.2 | 1088 ± 2.2 | 1042.2 ± 2.2 | 932.2 ± 2.2
x1 = 1 | 744.955 ± 1.1 | 734.806 ± 1.1 | 708.642 ± 1.2 | 1076.4 ± 2.2 | 1031 ± 2.2 | 920.73 ± 2.2
